The values that follow come from patent US5324725A, “7-fused 2-(piperazinoalkyl) indole derivatives, intermediates and compositions thereof” (Kali-Chemie Pharma GmbH, priority 1991, dated 1994).

This assay deals with T1, 5-lipoxygenase (Mus musculus, UniProt P48999).
T1 construct: A cell suspension containing peritoneal cells of male mice 8-10 weeks old was obtained; endogenous in cells; host or cells: mouse peritoneal macrophages (male mice 8-10 weeks old), zymosan-stimulated
T1 sequence (P48999 1-674): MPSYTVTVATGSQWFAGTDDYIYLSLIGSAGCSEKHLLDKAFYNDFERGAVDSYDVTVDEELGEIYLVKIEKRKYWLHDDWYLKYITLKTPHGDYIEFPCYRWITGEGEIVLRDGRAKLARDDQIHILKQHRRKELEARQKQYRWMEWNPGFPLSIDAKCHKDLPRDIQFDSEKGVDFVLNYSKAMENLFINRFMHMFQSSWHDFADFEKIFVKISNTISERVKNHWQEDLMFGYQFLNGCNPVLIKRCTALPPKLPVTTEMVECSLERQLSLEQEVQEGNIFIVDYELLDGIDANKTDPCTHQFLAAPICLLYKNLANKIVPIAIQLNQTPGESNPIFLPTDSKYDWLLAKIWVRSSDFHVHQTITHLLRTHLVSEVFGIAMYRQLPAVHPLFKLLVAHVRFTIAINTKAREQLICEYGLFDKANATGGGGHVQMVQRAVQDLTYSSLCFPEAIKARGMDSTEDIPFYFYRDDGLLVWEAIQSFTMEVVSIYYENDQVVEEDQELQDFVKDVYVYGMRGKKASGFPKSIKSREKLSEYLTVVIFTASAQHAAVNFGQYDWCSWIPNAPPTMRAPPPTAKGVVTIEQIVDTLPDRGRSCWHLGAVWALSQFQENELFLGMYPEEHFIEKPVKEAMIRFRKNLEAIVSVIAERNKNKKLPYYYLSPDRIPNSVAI
Put plainly: 5-lipoxygenase inhibition: release of LTC4 from zymosan-stimulated mouse peritoneal macrophage cells. Particulars: 10^-5 mol/l, read-out: In vitro % inhibition effect on the release of LTC4. Format: cell-based. The source says:
5. In vitro determination of cyclooxygenase inhibition and 5-lipoxygenase inhibition.
After activation of the cell, arachidonic acid contained in cell membranes is metabolized in two ways. Leukotrienes, inter alia leukotriene C4, are formed under the action of the enzyme 5-lipoxygenase (5-LO), and prostanoids are formed under the action of the enzyme cyclooxygenase (CO). In in vitro systems, the metabolites are secreted from the cell.
To investigate the cyclooxygenase-inhibiting and the 5-lipoxygenase-inhibiting properties, the inhibitory effect of the test substances on the biosynthesis of the arachidonic acid derivatives leukotriene C4 (LTC4) and 6-ketoprostaglandin F1 α (6-keto-PGF1 α) is determined in vitro on mouse peritoneal macrophage cells. This was accomplished by determining the LTC4 and 6-keto-PGF1 α contents in a culture medium of mouse peritoneal macrophage cells by zymosan stimulation as described by Scott et al. (J. Exp. Med. 152 (1980), 324-335) and by Fradin et al. (Prostaglandins, 33 (1987), 579-589).
A cell suspension containing peritoneal cells of male mice 8-10 weeks old was obtained in a known manner. A commercially available cell culture solution (RPMI 1640 from Messrs. Gibco) was used to which heparin (I0 international units/ml) and antibiotics were added according to the recipe of Bonney et al. (Biochem. J. 176 (1978) 422-433). The cell suspension was adjusted to a cell concentration of 10^6 cells per ml and distributed uniformly on titer plates containing […] (wells). These were kept for two hours in a humidified incubator filled with air enriched with 7% CO2. Cells not adhering to the titer cell walls were then removed by washing. The remaining macrophage cells adhering to the walls were incubated for about 12 hours in a suspension medium to which 0.1% bovine serum albumin (BSA) were added. The suspension medium was then replaced by a Hanks balanced salt solution (HBSS) containing 10 mM Hepes (hydroxyethyl-piperazinoethanesulfonic acid), to which a 0.1% strength solution of the test substances in aqueous, 1% strength dimethylformamide or only the solvent had been added. After 15 minutes the arachidonic acid metabolism was stimulated by adding 10 particles of zymosan (=glycoproteinmixture, isolated from cell walls of beer yeast, Saccharomyces cerevisiae, manufactured by Sigma Chemical Co., Munich) per titer cell. After 2 hours, samples of each of the supernatant liquids were investigated for their 6-keto-PGF1 α and LTC4 contents by means of an enzyme immunoassay (EIA) carried out by the method of Pradelles et al. (Analytical Chem. 57 (1985), 1170-1173). The determination of LTC4 and the determination of 6-keto-PGF1 α were each carried out in comparison with a comparative scale on suitable dilutions of the samples (1:50 to 1:250 for the LTC4 determination and 1:250 to 1:1250 for the 6-keto-PGF1 α determination). To determine the inhibitory effect of a 10^-5 molar concentration of the compounds, the amount of reference eicosanoids was determined and the inhibitory effect was calculated from this in % inhibition compared to the measurements of the zymosan controls.
On to `Cc1ccnc(N2CCN(CCc3c(C)n4c5c(cccc35)CCC4)CC2)c1` [Example 1, 5,6-Dihydro-2-methyl-1-{2-[4-(4-methylpyridin-2-yl)piperazin-1-yl]ethyl}-4H-pyrrolo[3,2,1-ij]quinoline], for which the inhibition at 10 µM amounted to 24%.
In the case of `Cc1ccnc(N2CCN(CCc3c(C)n4c5c(cccc35)CCC4c3ccccc3)CC2)c1` (centres unmarked) [Example 3, 5,6-dihydro-2-methyl-4-phenyl-1-{2-[4-(4-methylpyridine-2-yl)piperazin-1-yl]-ethyl}-4H-pyrrolo[3,2,1-ij]quinoline], the inhibition at 10 µM amounted to 37%.
As for `CCCCCCCC1CCc2cccc3c(CCN4CCN(c5cc(C)ccn5)CC4)c(C)n1c23` (centres unmarked) [Example 4, 4-n-heptyl-5,6-dihydro-2-methyl-1-{2-[4-(4-methylpyridin-2-yl)piperazin-1-yl]ethyl}-4H-pyrrolo[3,2,1-ij]-quinoline], the inhibition at 10 µM came out at 44%.
As to `COc1ccc(-c2c(CCN3CCN(c4cc(C)ccn4)CC3)c3cccc4c3n2CCC4)cc1` [Example 7, 2-(4-methoxy-phenyl)-1-{2-[4-(4-methylpyridin-2-yl)piperazin-1-yl]ethyl}-5,6-dihydro-4H-pyrrolo[3,2,1-ij]quinoline], the inhibition at 10 µM was found to be 56%.
Regarding `Cc1ccnc(N2CCN(CCc3c(-c4ccc(O)cc4)n4c5c(cccc35)CCC4)CC2)c1` [Example 8, 2-(4-hydroxyphenyl)-1-{2-[4-(4-methylpyridin-2-yl)piperazin-1-yl]ethyl}-5,6-dihydro-4H-pyrrolo[3,2,1-ij]quinoline], the inhibition at 10 µM turned out to be 99%.
With `Cc1ccnc(N2CCN(CCc3c(C)n4c5c(cc(Br)cc35)CCC4)CC2)c1` [Example 9, 8-Bromo-2-methyl-1-{2-[4-(4-methylpyridin-2-yl)piperazin-1-yl]ethyl}-5,6-dihydro-4H-pyrrolo[3,2,1-ij]quinoline] the figure was 62%; with `Cc1ccnc(N2CCN(CCc3c(-c4ccc(OCCCCO)cc4)n4c5c(cccc35)CCC4)CC2)c1` [Example 12, 2-[4-(4-Hydroxybutyloxy)-phenyl]-1-{2-[4-(4-methylpyridin-2-yl)piperazin-1-yl]ethyl}-5,6-dihydro-4H-pyrrolo[3,2,1-ij]quinoline], 97%; with `CCc1c(C(O)CN2CCN(c3cc(C)ccn3)CC2)c2cccc3c2n1CCC3` (centres unmarked) [Example 14, 2-Ethyl-5,6-dihydro-1-{2-[4-(4-methylpyridin-2-yl)piperazin-1-yl]-1-hydroxyethyl}-4H-pyrrolo[3,2,1-ij]quinoline], 55%.
In the case of `Cc1ccnc(N2CCN(CCc3c(CO)n4c5c(cccc35)CCC4)CC2)c1` [Example 16, 5,6-dihydro-2-hydroxymethyl-1-{2-[4-(4-methylpyridin-2-yl)piperazin-1-yl]ethyl}-4H-pyrrolo[3,2,1-ij]quinoline] it was 17%; in that of `Cc1ccnc(N2CCN(CCc3c(C)n4c5c(cc(C(O)C(C)C)cc35)CCC4)CC2)c1` (centres unmarked) [Example 19, 5,6-Dihydro-8-(1-hydroxy-2-methylpropyl)-2-methyl-1-{2-[4-(4-methylpyridin-2-yl)piperazin-1-yl]ethyl}-4H-pyrrolo-[3,2,1-ij]quinoline], 55%.
In the case of `Cc1ccnc(N2CCN(CCc3c(C)n4c5c(cc(N)cc35)CCC4)CC2)c1` [Example 20, 8-Amino-5,6-dihydro-2-methyl-1-{2-[4-(4-methylpyridin-2-yl)piperazin-1-yl]ethyl}-4H-pyrrolo[3,2,1-ij]quinoline] it was 0%.
As for `Cc1ccnc(N2CCN(CCc3c(C)n4c5c(cc(CC(C)C)cc35)CCC4)CC2)c1` [Example 21, 5,6-Dihydro-2-methyl-8-(2-methylpropyl)-1-{2-[4-(4-methylpyridin-2-yl)piperazin-1-yl]ethyl}-4H-pyrrolo[3,2,1-ij]quinoline], the inhibition at 10 µM turned out to be 95%.
Consider `CCCCC1CCc2cc(C(=O)C(C)C)cc3c(CCN4CCN(c5cc(C)ccn5)CC4)c(C)n1c23` (centres unmarked) [Example 23, 4-n-Butyl-5,6-dihydro-8-(2-methyl-1-oxopropyl)-2-methyl-1-{2-[4-(4-methylpyridin-2-yl)piperazin-1-yl]ethyl}-4H-pyrrolo[3,2,1-ij]quinoline], for which the inhibition at 10 µM came to 94%.
For the molecule `Cc1ccnc(N2CCN(CCc3c(C)n4c5c(cc(NC(=O)c6ccccc6)cc35)CCC4)CC2)c1` [Example 25, 8-Benzoylamino-5,6-dihydro-2-methyl-1-{2-[4-(4-methylpyridin-2-yl)piperazin-1-yl]-ethyl}-4H-pyrrolo[3,2,1-ij]quinoline], the inhibition at 10 µM is 69%.
`CC(C)=Cc1cc2c3c(c1)c(CCN1CCN(c4cc(C)ccn4)CC1)c(C)n3CCC2` [Example 26, 5,6-Dihydro-2-methyl-8-(2-methylprop-1-enyl)-1-{2-[4-(4-methylpyridin-2-yl)piperazin-1-yl]ethyl}-4H-pyrrolo[3,2,1-ij]quinoline]: the inhibition at 10 µM is 89%.
As for `Cc1ccnc(N2CCN(CCc3c(C)n4c5c(cc(C(=O)C(C)C)cc35)CCC4)CC2)c1` [Example 27, 5,6-dihydro-2-methyl-8-(2-methyl-1-oxopropyl)-1-{2-[4-(4-methylpyridin-2-yl)piperazin-1-yl]ethyl}-4H-pyrrolo-[3,2,1-ij]quinoline], the inhibition at 10 µM amounted to 61%.
Turning to `Cc1ccnc(N2CCN(CCc3c(C)n4c5c(cccc35)CC4C)CC2)c1` (centres unmarked) [Example 33], the inhibition at 10 µM was determined as 4%.
`Cc1ccnc(N2CCN(CCc3c(C)n4c5c(ccc(Cl)c35)OCC4)CC2)c1` [Example 35]: the inhibition at 10 µM was 75%.
Consider `Cc1c(CCN2CCN(c3ccccn3)CC2)c2cccc3c2n1CCC3` [Example 37], for which the inhibition at 10 µM stood at 13%.
As for `Cc1ccc(N2CCN(CCc3c(C)n4c5c(cccc35)CCC4)CC2)nc1` [Example 42], the inhibition at 10 µM is 15%.
With `Cc1c(CCN2CCN(c3ccc(Br)cn3)CC2)c2cccc3c2n1CCC3` [Example 43], the inhibition at 10 µM amounted to 24%.
With `Cc1cc2c3c(c1)c(CCN1CCC(C(=O)c4ccc(F)cc4)CC1)c(C)n3CCC2` [Example 55] the figure was 45%; with `COc1ccc(C2CCc3cccc4c(CCN5CCN(c6cc(C)ccn6)CC5)c(C)n2c34)cc1` (centres unmarked) [Example 59], 80%.
As to `Cc1ccnc(N2CCN(CCc3c(C)n4c5c(cccc35)CCC4c3ccc(O)cc3)CC2)c1` (centres unmarked) [Example 61], the inhibition at 10 µM was found to be 98%.
In the case of `C=CCCC1CCc2cccc3c(CCN4CCN(c5cc(C)ccn5)CC4)c(C)n1c23` (centres unmarked) [Example 62] it was 94%.
With `CCCCC1CCc2cc(OC)cc3c(CCN4CCN(c5cc(C)ccn5)CC4)c(C)n1c23` (centres unmarked) [Example 63], the inhibition at 10 µM is 98%.
Regarding `COc1ccc(C2CCc3cc(OC)cc4c(CCN5CCN(c6cc(C)ccn6)CC5)c(C)n2c34)cc1` (centres unmarked) [Example 65], the inhibition at 10 µM was 89%.
On to `Cc1ccnc(N2CCN(CCc3c(C)n4c5c(cc(C(=O)c6ccccc6)cc35)CCC4)CC2)c1` [Example 66], for which the inhibition at 10 µM stood at 33%.
Consider `CC(=O)c1cc2c3c(c1)c(CCN1CCN(c4cc(C)ccn4)CC1)c(C)n3CCC2` [Example 67], for which the inhibition at 10 µM was determined as 66%.

The term inhibition denotes the share of the control response that was lost under treatment.
